The values below come from US20250092065A1, “2-(INDAZOL-5-YL)-6-(PIPERIDIN-4-YL)-1,7-NAPHTHYRIDINE DERIVATIVES AND RELATED COMPOUNDS AS MODULATORS FOR SPLICING NUCLEIC ACIDS AND FOR THE TREATMENT OF PROLIFERATIVE DISEASES” (REMIX THERAPEUTICS INC., priority 2022, published 2025).

Structures are written as SMILES.

What is called IC50 is the concentration at which inhibition is half-maximal.

For one test, the system named is SMN2 mRNA. The experiment in a line: RT-qPCR splicing assay, SMN2 mRNA. It is filed as cell-based, human. Particulars: Homo sapiens, canonical junction qPCR panel, Table 4; read-out: SMN2 IC50 (decrease in CJ mRNA levels). Put shortly:
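Canonical and alternative-exon junction isoforms were quantified by RT-qPCR in cell lysates, with ΔCt against a housekeeper (GAPDH/GUSB/PPIA), then ΔΔCt vs DMSO, converted to 2^(−ΔΔCt) and percent response. K562 or A673 cells were exposed for 24 h to 11 concentrations (3-fold, top final 10 uM).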
For orientation: Quantitative PCR measures a nucleic acid by following its amplification.

In a further test the test system is MYB. The test can be described thus: HiBiT protein abundance assay, MYB (K562 HiBiT knock-in). Particulars: HiBiT knock-in K562 cells, 24 hours, top dose 10 μM. It is filed as cell-based, human. Put shortly:
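Steps: seed HiBiT knock-in K562 cells; add compound in 10-point 3-fold series from 10 μM final; incubate 24 h, 37 °C; add lytic HiBiT reagent, shake 5 min, wait 10 min; read luminescence. Normalize to parental K562 and DMSO controls, fit 4PL, take IC50.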
In general terms: With HiBiT, luminescence reflects the tagged protein that the partner subunit can reach.

Take `COCc1nc2cc(O)c(-c3ccc4nc(N5CCC(NC(C)(C)C)C5)ccc4n3)cc2o1` (stereo not drawn) [Compound 334, 6-{6-[3-(tert-butylamino)pyrrolidin-1-yl]-1,5-naphthyridin-2-yl}-2-(methoxymethyl)-1,3-benzoxazol-5-ol]: the IC50 in the test on SMN2 mRNA and with MYB was 100 to 1000 nM throughout.
Consider `COc1cc2nc(C3COC3)oc2cc1-c1ccc2nc(N3CCC(NC(C)(C)C)C3)ccc2n1` (stereo not drawn) [Compound 335], for which the IC50 in the test with SMN2 mRNA and with MYB was 1000 to 10000 nM throughout.
On to `CC(C)(C)NC1CCN(c2ccc3nc(-c4cc5oc(CO)nc5cc4O)ccc3n2)C1` (stereo not drawn) [Compound 336, 6-{6-[3-(tert-butylamino)pyrrolidin-1-yl]-1,5-naphthyridin-2-yl}-2-(hydroxymethyl)-1,3-benzoxazol-5-ol], for which the IC50 in the test on SMN2 mRNA and in the test on MYB was below 100 nM each time.
For the compound `CNC1CCN(c2ccc3nc(-c4cc5cn(C)nc5c(C)c4O)ncc3n2)C1` (stereo not drawn) [Compound 337, 2,7-dimethyl-5-{6-[3-(methylamino)pyrrolidin-1-yl]pyrido[3,2-d]pyrimidin-2-yl}indazol-6-ol], the IC50 with SMN2 mRNA and in the test with MYB was below 100 nM each time.
As to `Cc1c(O)c(-c2ncc3nc(N4CCNCC4)ccc3n2)cc2cn(C)nc12` [Compound 338, 2,7-dimethyl-5-[6-(piperazin-1-yl)pyrido[3,2-d]pyrimidin-2-yl]indazol-6-ol], the IC50 in the test on SMN2 mRNA and in the test on MYB was below 100 nM each time.
Regarding `Cc1nc2cc(O)c(-c3ccc4nc(N5CCC(NC(C)(C)C)C5)ccc4n3)cc2n1C` (stereo not drawn) [Compound 339, 6-{6-[3-(tert-butylamino)pyrrolidin-1-yl]-1,5-naphthyridin-2-yl}-1,2-dimethyl-1,3-benzodiazol-5-ol], the IC50 in the test on SMN2 mRNA and with MYB was 100 to 1000 nM each time.
With `Cc1nc2cc(-c3ccc4nc(N5CCC(NC(C)(C)C)C5)ccc4n3)c(O)cc2n1C` (stereo not drawn) [Compound 340, 6-{6-[3-(tert-butylamino)pyrrolidin-1-yl]-1,5-naphthyridin-2-yl}-2,3-dimethyl-1,3-benzodiazol-5-ol], the IC50 in the test with SMN2 mRNA and in the test on MYB was 100 to 1000 nM in each case.
For `Cn1cc2cc(-c3ccc4nc(N5CCC(NC67CC(O)(C6)C7)C5)ccc4n3)c(O)cc2n1` (stereo not drawn) [Compound 341, 5-{6-[3-({3-hydroxybicyclo[1.1.1]pentan-1-yl}amino)pyrrolidin-1-yl]-1,5-naphthyridin-2-yl}-2-methylindazol-6-ol], the IC50 in the test with SMN2 mRNA was below 100 nM; with MYB it was 100 to 1000 nM.
As to `Cc1c(O)c(-c2ncc3nc(N4CCC5(CCN5)C4)ccc3n2)cc2cn(C)nc12` (stereo not drawn) [Compound 342, 5-(6-{1,6-diazaspiro[3.4]octan-6-yl}pyrido[3,2-d]pyrimidin-2-yl)-2,7-dimethylindazol-6-ol], the half-maximal inhibitory concentration (IC50) was below 100 nM in the test on SMN2 mRNA and 100 to 1000 nM in the test with MYB.
For the compound `Cc1cc2nc(-c3ccc4nc(N5CCC(NC(C)(C)C)C5)ccc4n3)cn2c(C)n1` (stereo not drawn) [Compound 344, N-tert-butyl-1-(6-{5,7-dimethylimidazo[1,2-c]pyrimidin-2-yl}-1,5-naphthyridin-2-yl)pyrrolidin-3-amine], the IC50 in the test with SMN2 mRNA was below 100 nM; in the test with MYB it was 1000 to 10000 nM.
For `CCc1nc2cc(O)c(-c3ccc4nc(N5CCC(NC(C)(C)C)C5)ccc4n3)cc2o1` (stereo not drawn) [Compound 346, 6-{6-[3-(tert-butylamino)pyrrolidin-1-yl]-1,5-naphthyridin-2-yl}-2-ethyl-1,3-benzoxazol-5-ol], the IC50 in the test on SMN2 mRNA lay within 100 to 1000 nM; in the test with MYB, 1000 to 10000 nM.
Consider `Cc1nc2cc(O)c(-c3ccc4nc(N5CC[C@H](N[C@H]6C[C@H](F)C6)C5)ccc4n3)cc2o1` [Compound 350, 2-methyl-6-{6-[(3S)-3-{[(1r,3r)-3-fluorocyclobutyl]amino}pyrrolidin-1-yl]-1,5-naphthyridin-2-yl}-1,3-benzoxazol-5-ol], for which the IC50 in the test with SMN2 mRNA was below 100 nM; in the test on MYB it was 100 to 1000 nM.
